These results are taken from paper PMC9095706, “TMEM16 scramblases thin the membrane to enable lipid scrambling” (Nature Communications, 2022).

One assay has as its target T1, afTMEM16 (Aspergillus fumigatus, UniProt Q4WA18).
T1 construct: gene AFUA_4G02970; expressed in S. cerevisiae from pDDGFP2, His tag removed with TEV protease, digitonin-purified homodimer, in MSP1E3 nanodiscs or proteoliposomes
T1 sequence (Q4WA18 1-735): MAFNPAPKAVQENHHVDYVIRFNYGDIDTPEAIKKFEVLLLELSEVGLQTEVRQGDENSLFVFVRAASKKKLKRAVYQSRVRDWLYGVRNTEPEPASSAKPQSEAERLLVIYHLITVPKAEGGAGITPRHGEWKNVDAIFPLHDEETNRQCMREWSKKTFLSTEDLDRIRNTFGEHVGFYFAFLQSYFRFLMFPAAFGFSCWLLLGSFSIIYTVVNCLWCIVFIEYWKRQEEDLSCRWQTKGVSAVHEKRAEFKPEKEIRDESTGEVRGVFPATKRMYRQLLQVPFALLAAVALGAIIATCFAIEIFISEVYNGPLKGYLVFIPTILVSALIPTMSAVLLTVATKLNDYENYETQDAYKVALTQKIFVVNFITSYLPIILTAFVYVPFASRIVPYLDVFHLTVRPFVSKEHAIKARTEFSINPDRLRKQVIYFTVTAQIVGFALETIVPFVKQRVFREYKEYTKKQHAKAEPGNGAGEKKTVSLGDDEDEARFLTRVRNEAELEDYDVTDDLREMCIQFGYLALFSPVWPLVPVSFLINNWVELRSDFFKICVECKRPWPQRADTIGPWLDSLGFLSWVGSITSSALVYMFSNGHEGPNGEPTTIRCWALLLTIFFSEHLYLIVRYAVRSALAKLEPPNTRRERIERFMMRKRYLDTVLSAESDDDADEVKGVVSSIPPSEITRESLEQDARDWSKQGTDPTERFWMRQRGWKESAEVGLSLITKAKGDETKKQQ
As to the kind of experiment: cryo-EM structure ([…] Å) in MSP1E3 nanodiscs. The format is binding. The settings on record: 0.5 mM Ca2+; 7:3 DOPC:DOPG nanodisc; lipids D4 and D5 built as PG, near dimer interface and lipid pathway; models started from POPG (PGW) and truncated to density.

For assay [1], the target named is afTMEM16 scramblase from Aspergillus fumigatus (Aspergillus fumigatus). As to the kind of experiment: cryo-EM structure; afTMEM16 reconstituted in lipid nanodiscs (MSP1E3 or MSP2N2; C14, C18 or C22 lipids, 7 PC:3 PG), 50 mM HEPES pH 8.0, 150 mM KCl with 0.5 mM CaCl2 or 5 mM EDTA; homodimer, C2 symmetric reconstructions.

Turning to `CCCCCCCC/C=C\CCCCCCCC(=O)OC[C@H](COP(=O)(O)OCC(O)CO)OC(=O)CCCCCCC/C=C\CCCCCCCC` (mixture of isomers) [1,2-dioleoyl-sn-glycero-3-phospho-(1′-rac-glycerol)], on afTMEM16, the “cryo-EM structure (2.3 Å) in MSP1E3 nanodiscs” value is “The downward slope of the OL starts at D5, a well-defined PG lipid”.
As for “afTMEM16 scramblase from Aspergillus fumigatus (natural protein)”, the stoichiometry N (in general, the number of molecules, sites or subunits per partner or assembly) in assay [1] was found to be 2.
